Experimental data: patent US10106778B2, “Selective targeting of cancer stem cells” (Whitehead Institute for Biomedical Research, priority 2012, dated 2018)

How the values were obtained:
HMLE-GFP cells = assay: Annexin V apoptosis in co-mixed culture, HMLE-GFP gate; type: cell-based, human; conditions: co-mixed cells treated for three days
Method: (§1) Kinase inhibitors and other chemical compounds were obtained from various sources listed below. These were dissolved or diluted in DMSO. To set up the screen, 75,000 NAMEC-Tom and 15,000 HMLE-GFP cells were seeded into each well of a 6-well tissue culture plate. The following day, spent media was replaced with 3 ml of fresh media. Inhibitors were added to achieve the desired range of concentrations. For control treatment, DMSO was added. Fresh media containing inhibitors were replaced daily during the six day period. For analysis, cells were trypsinized with 1 ml 0.15% trypsin, diluted with 1 ml serum-containing media and fixed with 1 ml of 4% paraformaldehyde. FACS analysis was performed to analyze the proportion of surviving cells relative to DMSO-treated control for NAMEC-Tom or HMLE-GFP cells. To test the effects of these inhibitors on CSCs and non-CSCs, NAMEC-Ras-Tom and […] were used in similar co-mixed experiments. To assess the fraction of cells undergoing apoptosis, cells were exposure to agents for three days without fresh media and then analyzed with Annexin V-APC (BD Biosciences).
(§2) To assess how PKC inhibitors function in these cell populations, we tested whether they induced apoptosis. Thus, the mixed cell populations described above were treated with one of the inhibitors (Ro-31-8220) for three days and assessed with Annexin V, which marks apoptotic cells. 89% of NAMEC-Tom cells underwent apoptosis in comparison to 22.4% of the HMLE-GFP cells (FIG. 2E).

NAMEC-Tom cells = assay: Annexin V apoptosis in co-mixed culture, NAMEC-Tom gate; type: cell-based, human; conditions: co-mixed cells treated for three days
Method: as §1, §2

[1] = tested on: NAMEC-Tom-Ras and HMLE-GFP-Ras cells; assay: Co-mixed NAMEC-Tom-Ras (CSC-enriched) and HMLE-GFP-Ras (CSC-depleted) cells, kinase inhibition, FACS; type: cell-based, human; conditions: for resistance of NAMEC-Tom-Ras cells relative to HMLE-GFP-Ras cells: at LC50, co-mixed cells; for which cell type is more sensitive / selected against: dose response, co-mixed cells
Method: as §1, with “experiments.” for “experiments. To assess the fraction of cells undergoing apoptosis, cells were exposure to agents for three days without fresh media and then analyzed with Annexin V-APC (BD Biosciences).”
as §1
Having determined that NAMEC-Ras cells were enriched for CSCs, we mixed NAMEC-Ras cells labeled with tdTomato (NAMEC-Tom-Ras) and HMLE-Ras cells labeled with GFP (HMLE-GFP-Ras) and re-tested the effects of kinase inhibition as described above. […] In addition, these NAMEC-Tom-Ras cells were more resistant to paclitaxel (11.3 fold) and staurosporine (32.8 fold) than the corresponding HMLE-GFP-Ras cells used as controls (FIG. 3C).

[2] = tested on: NAMEC-Tom and HMLE-GFP cells; assay: Kinase inhibitor screen: co-mixed NAMEC-Tom and HMLE-GFP cells, six days of inhibitor, FACS; type: cell-based, human; conditions: six days of inhibitor treatment, FACS relative to DMSO
Method: as §1, with “experiments.” for “experiments. To assess the fraction of cells undergoing apoptosis, cells were exposure to agents for three days without fresh media and then analyzed with Annexin V-APC (BD Biosciences).”
as §1
We undertook to identify kinase inhibitors that selectively targeted mesenchymal-like cells including those with stem cell properties. To do so, we established a screen that measured the ability of candidate inhibitors to preferentially deplete NAMECs but not parental HMLE cells from cell cultures. Thus, we labeled NAMECs with the tdTomato red fluorescent protein (NAMEC-Tom) and the HMLE cells with the GFP green fluorescent protein (HMLE-GFP); we then attempted to reconstitute certain stem cell and non-stem cell interactions that might operate in vivo by mixing the two cell populations in 6-well adherent tissue culture plates. One day later, we challenged these cultures with a variety of kinase inhibitors (FIG. 2A).
The robustness of this screen, designed to identify mesenchymal cell-specific inhibitors, was enhanced by seeding NAMEC-Tom and HMLE-GFP cells in a 5:1 ratio. While NAMEC-Tom cells, like others that have passed through an EMT, proliferated marginally more slowly than their epithelial counterparts in culture, their initial advantage in seeding density was compensated over the course of the six day-long assays by the more rapid proliferation of the HMLE-GFP cells (FIG. 11). After six days of treatment, the relative proportions of NAMEC-Tom and HMLE-GFP cells were quantified with fluorescent-activated cell sorting (FACS) to determine the selective effects, if any, of these various inhibitors (FIG. 2A).

NAMECs = assay: Cellular plasticity of NAMECs: differentiation by PGE2 blockade and inhibitor sensitivity; type: cell-based, human; conditions: for sensitivity of GW-treated (differentiated) NAMECs: after differentiation with GW627368; for sensitivity of NAMECs relative to parental HMLE cells: undifferentiated NAMECs
From the text: NAMECs are phenotypically plastic and can transit between the epithelial and mesenchymal cell state. The cells relied on autocrinal PGE2 signaling for maintenance of the mesenchymal state.

NAMEC-Ras cells = assay: NAMEC-Ras subcutaneous xenograft, treatment from day of implantation; type: in vivo
Method: All research involving animals complied with protocols approved by the MIT Committee on Animal Care. For subcutaneous injections, cells resuspended in 100111 PBS containing 50% Matrigel were injected into both flanks female NOD-SCID mice except for studies involving the in vivo administration of chemical inhibitors where only one flank was implanted. The tumor incidence and weight were measured between 4 and 12 weeks post-injection.
In order to assess the therapeutic benefits of PKCα and SPHK1/2 inhibitors, NOD-SCID mice were xenografted with 5×10^4 NAMEC-Ras cells and treated for 30 days with a daily intraperitoneal dose of either DMSO control, PKCα Inh (5 mg/kg/d), SPHK1/2 Inh (5 mg/kg/d) or PKCα+SPHK1/2 inhibitors (2.5 mg/kg/d of each).

p-FRA1^S265 = assay: Western blot of FRA1 phosphorylation in NAMECs; type: cell-based, human; conditions: for effect on phosphorylation of FRA1: applied to NAMECs for 30 min; for total FRA1: within 30 min of treatment
Method: (§3) To obtain protein extracts, cells were scraped from culture dishes in chilled PBS, centrifuged at 450×g for 4 min at 4° C., washed again in PBS, and incubated for 20 min in ice cold lysis buffer containing freshly added protease inhibitors (0.5 mM phenylmethylsulfonyl fluoride, 10 μg/ml leupeptin, 2 μg/ml aprotonin). Lysates were cleared by centrifugation at 12,100×g, 4° C. for 10 min and the supernatant was snap frozen in liquid nitrogen. Protein concentrations were determined using Bradford Dye (Bio-Rad). 30 μg total protein was separated by SDS-PAGE on NuPAge gels (Invitrogen), and transferred to Hybond-P PVDF membrane (GE Healthcare). The membrane was probed with specific primary antibodies and antibody-protein complex detected by HRP-conjugated antibodies and ECL-Plus (Amersham Biosciences).
FRA1 is a member of the Fos family of transcription factors, which is also comprised of c-Fos, FosB and Fra2. Together with the Jun family of transcription factors composed of c-Jun, JunB and JunD, individual members of the Fos and Jun family associate with one another to form heterodimeric activator protein-1 (AP-1) complexes that bind and transcriptionally regulate target gene expression when phosphorylated (Eferl and Wagner, 2003).
We assessed whether the observed increased p-FRA1 activity in the mesenchymal cells could be further augmented by elevated ERK signaling during EMT. Accordingly, inhibition of ERK1/2 phosphorylation with a MEK inhibitor was able to decrease p-FRA1^S265 levels by 65% but not the levels of total FRA1 or p-c-Jun (FIG. 5G), confirming that ERK1/2 signaling promoted p-FRA1 activity.

[3] = tested on: p-PKCα^S497 and p-PKCα^T638; assay: Western blot of PKCα phosphorylation in NAMECs; type: cell-based, human
Method: as §3
We subsequently sought to determine whether PKCα activation was directly dependent upon PDGFR-PLCγ. Exposure of NAMECs to a PLCγ inhibitor (U73122) reduced active p-PKCα^S497 and p-PKCα^T638 by 1.3 and 3.1-fold respectively within 30 min, and 6.3 and 4.2-fold respectively by 60 min (FIG. 13C); total PKCα level was unchanged (FIG. 13C). The inhibition of PDGFR in NAMECs, similarly, led to a loss of PKCα phosphorylation (p-PKCα^S497: 2.8 fold, p-PKCα^T638: 5.9 fold), as illustrated once again by the loss of active p-PKCα^S497 and p-PKCα^T638 within 30 min, while total PKCα remained constant (FIG. 13D).

[4] = tested on: p-B-Raf, p-c-Raf, p-MEK1/2 and p-ERK1/2; assay: Western blot of MAPK/ERK signaling in NAMECs; type: cell-based, human; conditions: 30 min
Method: as §3
We assessed whether mesenchymal cells contained higher Ras expression or activated Ras. […] We assessed whether enhanced ERK signaling in the mesenchymal cell state was primarily mediated through the activated PDGFR and PKCα signaling cascade, rather than through activation via a Ras-Raf pathway. To test this, we exposed NAMECs to PKCα-specific inhibitors for 30 min. This reduced p-B-Raf and p-c-Raf expression, and led to the loss of p-MEK1/2 and p-ERK1/2 (FIG. 5F). […] Therefore, the enhanced activity of ERK signaling during EMT was, in part, conferred by signaling through PDGFR and PKCα.

[5] = 5×10^4 cells, daily intraperitoneal 30 days, 5 mg/kg/d (combination 2.5 mg/kg/d of each), after 15 weeks

Compound: CN[C@@H]1C[C@H]2O[C@@](C)([C@@H]1OC)n1c3ccccc3c3c4c(c5c6ccccc6n2c5c31)C(=O)NC4 [staurosporine]
- apoptosis of HMLE-GFP cells (Annexin V) (HMLE-GFP cells): 98%
- apoptosis of NAMEC-Tom cells (Annexin V) (NAMEC-Tom cells): 29.7%
- resistance of NAMEC-Tom-Ras cells relative to HMLE-GFP-Ras cells [1]: 32.8 fold
- preferential depletion of NAMEC-Tom or HMLE-GFP cells in co-mixed culture [2]: preferentially depleted the epithelial HMLE-GFP cells
- sensitivity of GW-treated (differentiated) NAMECs (NAMECs): became sensitive
- sensitivity of NAMECs relative to parental HMLE cells (NAMECs): resistant

Compound: O=C(Nc1cccc(Nc2cc(Nc3cccc(C(F)(F)F)c3)ncn2)c1)C1CC1 [EGFR Inh]
- which cell type is more sensitive / selected against [1]: HMLE-Ras-GFP were more sensitive

Compound: Cn1cc(C2=C(c3cn(CCCSC(=N)N)c4ccccc34)C(=O)NC2=O)c2ccccc21 [Ro-31-8220]
- apoptosis of HMLE-GFP cells (Annexin V) (HMLE-GFP cells): 22.4%
- apoptosis of NAMEC-Tom cells (Annexin V) (NAMEC-Tom cells): 89%
- mice that formed tumors (NAMEC-Ras cells; [5]): four of eight
- tumor weight (NAMEC-Ras cells; [5]): ~0.16 g
- tolerability in mice (NAMEC-Ras cells; 30 days of treatment followed by eight weeks of observation): well-tolerated in mice and had no adverse effects
- preferential depletion of NAMEC-Tom or HMLE-GFP cells in co-mixed culture [2]: diminished NAMEC-Tom cells relative to HMLE-GFP cells
- effect on phosphorylation of FRA1 (p-FRA1^S265): blocked the phosphorylation of FRA1
- total FRA1 (p-FRA1^S265): unchanged
- sensitivity of GW-treated (differentiated) NAMECs (NAMECs): lost their sensitivity
- sensitivity of NAMECs relative to parental HMLE cells (NAMECs): more sensitive

Compound: PKC 20-28: PKCα inhibitor, EMD Biosciences 476480 (FARKGALRQ; pseudosubstrate peptide; UniProt P17252 20-28, looked up, fragment)
- preferential depletion of NAMEC-Tom or HMLE-GFP cells in co-mixed culture [2]: diminished NAMEC-Tom cells relative to HMLE-GFP cells

Compound: COc1cccc2c1C(=O)c1c(O)c3c(c(O)c1C2=O)C[C@@](O)(C(=O)CO)C[C@@H]3O[C@H]1C[C@H](N)[C@H](O)[C@H](C)O1 [doxorubicin]
- preferential depletion of NAMEC-Tom or HMLE-GFP cells in co-mixed culture [2]: preferentially depleted the epithelial HMLE-GFP cells

Compound: COc1ccc2c(c1)CC[C@@H]1[C@@H]2CC[C@]2(C)[C@@H](NCCCCCCN3C(=O)C=CC3=O)CC[C@@H]12 [U73122]
- effect on PKCα phosphorylation [3]: The upregulation of PKCα phosphorylation by PDGFC was blocked
- total PKCα level [3]: unchanged
- reduction of p-PKCα^S497 ([3]; by 60 min): 6.3 fold
- reduction of p-PKCα^T638 ([3]; by 60 min): 4.2 fold
- reduction of p-PKCα^S497 ([3]; within 30 min): 1.3 fold
- reduction of p-PKCα^T638 ([3]; within 30 min): 3.1 fold

Compound: CN(C)CCCn1cc(C2=C(c3c[nH]c4ccccc34)C(=O)NC2=O)c2ccccc21 [bisindolylmaleimide I]
- preferential depletion of NAMEC-Tom or HMLE-GFP cells in co-mixed culture [2]: diminished NAMEC-Tom cells relative to HMLE-GFP cells
- effect on phosphorylation of FRA1 (p-FRA1^S265): blocked the phosphorylation of FRA1
- total FRA1 (p-FRA1^S265): unchanged

Compound: CCCCCCCCc1cccc(NC(=O)[C@H](N)COP(=O)(O)O)c1 [VPC23019]
- which cell type is more sensitive / selected against [1]: selected against NAMEC-Tom-Ras cells relative to HMLE-GFP-Ras cells in a dose-dependent manner

Compound: Oc1ccc(Nc2nc(-c3ccc(Cl)cc3)cs2)cc1 [SKI2]
- sensitivity of GW-treated (differentiated) NAMECs (NAMECs): lost their sensitivity
- sensitivity of NAMECs relative to parental HMLE cells (NAMECs): more sensitive

Compound: CC#CC(=O)Nc1cc2c(Nc3ccc(F)c(Cl)c3)ncnc2cn1 [EGFR Inh III]
- which cell type is more sensitive / selected against [1]: HMLE-Ras-GFP were more sensitive

Compound: CC(=O)O[C@H]1C(=O)[C@@]2(C)[C@H]([C@H](OC(=O)c3ccccc3)[C@]3(O)C[C@H](OC(=O)[C@H](O)[C@@H](NC(=O)c4ccccc4)c4ccccc4)C(C)=C1C3(C)C)[C@]1(OC(C)=O)CO[C@@H]1C[C@@H]2O [paclitaxel]
- apoptosis of HMLE-GFP cells (Annexin V) (HMLE-GFP cells): 89%
- apoptosis of NAMEC-Tom cells (Annexin V) (NAMEC-Tom cells): 22.3%
- resistance of NAMEC-Tom-Ras cells relative to HMLE-GFP-Ras cells [1]: 11.3 fold
- preferential depletion of NAMEC-Tom or HMLE-GFP cells in co-mixed culture [2]: preferentially depleted the epithelial HMLE-GFP cells
- sensitivity of GW-treated (differentiated) NAMECs (NAMECs): became sensitive
- sensitivity of NAMECs relative to parental HMLE cells (NAMECs): resistant

Compound: COc1cc2c(cc1OC)-c1[nH]nc(Nc3cccc(F)c3)c1C2 [PDGFR Inh IV]
- which cell type is more sensitive / selected against [1]: NAMEC-Ras-Tom cells were more sensitive
- effect on phospho-proteins of ERK signaling [4]: downregulation of B-Raf and C-Raf phosphorylation, and dampening ERK signaling
- effect on phosphorylation of FRA1 (p-FRA1^S265): blocked the phosphorylation of FRA1
- effect on PKCα phosphorylation [3]: reduced phosphorylation of PKCα

Compound: CCOc1c2c(c(OCC)c3ccccc13)C(=O)N(c1ccc(CC(=O)NS(=O)(=O)c3ccccc3)cc1)C2 [GW627368]
- protein changes accompanying differentiation (NAMECs; PGE2 inhibition): downregulation of p-PKCα and SPHK1/2 proteins
- morphology of NAMECs (NAMECs; blocked PGE2 signaling): differentiated into an epithelial morphology within three weeks
